Each structure is given as a SMILES string.

Data on 18 molecules can be found in the supplement of paper PMC4862054.

Common to all, as to experiment: normalised viability (% of control), CellTiter-Blue; higher = more viable cells (about 100 = DMSO control)
Conditions in all cases: incubation time: 72 h

Assay [1] has as its system MDA-MB-453. On the procedure:
(§1)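 DSRT, CellTiter-Blue viability, 72 h incubation. Signal is normalised to DMSO and benzethonium chloride controls. Value is the normalised response at dose 8.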

Assay [2] concerns CAL-51. On the procedure: as §1
For assay [3], the system named is CAL-148. On the procedure: as §1
For assay [4], the system named is DU-4475. On the procedure:
as §1

Assay [5] deals with HDQ-P1. On the procedure: as §1
The test system of assay [6] is CAL-85-1. On the procedure: as §1
Assay [7] concerns MDA-MB-453. On the procedure:
(§2)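 DSRT, CellTiter-Blue viability, 72 h incubation. Signal is normalised to DMSO and benzethonium chloride controls. Value is the normalised response at dose 7.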
This is another data set of the same source.

Assay [8] deals with CAL-51. On the procedure:
as §2
The source holds these as a separate data set.

Assay [9] relates to CAL-148. The procedure:
as §2
This is another data set of the same source.

Assay [10] has as its system DU-4475. The procedure: as §2
The source holds these as a separate data set.

For assay [11], the system named is HDQ-P1. The procedure:
as §2
This is another data set of the same source.

Assay [12] relates to CAL-85-1. The procedure:
as §2
The source holds these as a separate data set.

Assay [13] has as its system MDA-MB-453. On the procedure: (§3)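 DSRT, CellTiter-Blue viability, 72 h incubation. Signal is normalised to DMSO and benzethonium chloride controls. Value is the normalised response at dose 6.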
The source holds these as a separate data set.

Assay [14] deals with CAL-51. On the procedure: as §3
This is another data set of the same source.

Assay [15] has as its system CAL-148. The procedure:
as §3
This is another data set of the same source.

The subject of assay [16] is DU-4475. The procedure:
as §3
This is another data set of the same source.

The subject of assay [17] is HDQ-P1. The procedure: as §3
This is another data set of the same source.

For assay [18], the system named is CAL-85-1. The procedure: as §3
The source holds these as a separate data set.

On to `Cc1c(N)nc([C@H](CC(N)=O)NC[C@H](N)C(N)=O)nc1C(=O)N[C@H](C(=O)N[C@H](C)[C@@H](O)[C@H](C)C(=O)N[C@H](C(=O)NCCc1nc(-c2nc(C(=O)NCCC[S+](C)C)cs2)cs1)[C@@H](C)O)[C@@H](OC1OC(CO)C(O)C(O)C1OC1OC(CO)C(O)C(OC(N)=O)C1O)c1cnc[nH]1` (stereo partly drawn) [Bleomycin] (3000 nM), for which the normalised viability in the assay with MDA-MB-453 [1] was found to be 101%; in the assay on CAL-51 [2], 96.5%; in the assay with CAL-148 [3] it was 88.2%; in the assay with DU-4475 [4], 107%; in the assay with HDQ-P1 [5], 76.5%; in the assay on CAL-85-1 [6], 92.7%.

For `Cc1cc2c(F)c(Oc3ncnn4cc(OC[C@@H](C)O)c(C)c34)ccc2[nH]1` [Brivanib] (300 nM), the normalised viability in the assay with MDA-MB-453 [1] was 99.1%; in the assay with CAL-51 [2] it was 93.6%; in the assay with CAL-148 [3], 98.5%; in the assay on DU-4475 [4], 98.9%; with HDQ-P1 [5], 113%; in the assay on CAL-85-1 [6], 89.8%.

As for `CC(C)C[C@H](NC(=O)[C@H](CCc1ccccc1)NC(=O)CN1CCOCC1)C(=O)N[C@@H](Cc1ccccc1)C(=O)N[C@@H](CC(C)C)C(=O)[C@@]1(C)CO1` [Carfilzomib] (300 nM), the normalised viability in the assay with MDA-MB-453 [1] was 18.1%; in the assay on CAL-51 [2], 2.56%; in the assay on CAL-148 [3], 1.83%; in the assay on DU-4475 [4], 1.31%; with HDQ-P1 [5] it was 0.3%; in the assay with CAL-85-1 [6], 2.07%.

Take `Nc1nc(Cl)nc2c1ncn2[C@@H]1O[C@H](CO)[C@@H](O)[C@@H]1F` [Clofarabine] (3000 nM): the normalised viability in the assay with MDA-MB-453 [1] is 44.4%; in the assay with CAL-51 [2] it was 15.4%; in the assay on CAL-148 [3] it was 32.9%; in the assay with DU-4475 [4], 19.6%; in the assay with HDQ-P1 [5], 95.6%; in the assay with CAL-85-1 [6], 54.5%.

For `CCN(CC)CCOc1ccc(C(=C(Cl)c2ccccc2)c2ccccc2)cc1` [Clomifene] (3000 nM), the normalised viability was 82.8% with MDA-MB-453 [1]; 95.4% with CAL-51 [2]; 93.3% in the assay with CAL-148 [3]; 92.4% in the assay with DU-4475 [4]; 132% in the assay with HDQ-P1 [5]; 106% in the assay with CAL-85-1 [6].

In the case of `C[C@@H]1C[C@H]2[C@@H]3CCC4=CC(=O)C=C[C@]4(C)[C@@]3(F)[C@@H](O)C[C@]2(C)[C@@]1(O)C(=O)CO` [Dexamethasone] (3000 nM), the normalised viability in the assay on MDA-MB-453 [1] came to 78.2%; in the assay on CAL-51 [2] it was 106%; with CAL-148 [3], 93.3%; with DU-4475 [4], 100%; in the assay with HDQ-P1 [5] it was 112%; in the assay with CAL-85-1 [6], 115%.

Turning to `C[C@@H](CN1CC(=O)NC(=O)C1)N1CC(=O)NC(=O)C1` [Dexrazoxane] (1000 nM), the normalised viability in the assay with MDA-MB-453 [7] stood at 97.8%; with CAL-51 [8] it was 97.4%; in the assay with CAL-148 [9] it was 102%; with DU-4475 [10], 83.6%; with HDQ-P1 [11], 107%; in the assay on CAL-85-1 [12], 86.9%.

Take `C[C@@H](CN1CC(=O)NC(=O)C1)N1CC(=O)NC(=O)C1` [Dexrazoxane] (3000 nM): the normalised viability is 87.5% in the assay with MDA-MB-453 [1]; 83.9% in the assay with CAL-51 [2]; 96% with CAL-148 [3]; 92.8% in the assay with DU-4475 [4]; 98.1% in the assay with HDQ-P1 [5]; 104% in the assay with CAL-85-1 [6].

`CC(C)C(=O)Nc1ccc([N+](=O)[O-])c(C(F)(F)F)c1` [Flutamide] (3000 nM): the normalised viability was found to be 120% in the assay on MDA-MB-453 [1]; 110% with CAL-51 [2]; 104% with CAL-148 [3]; 93.2% in the assay on DU-4475 [4]; 98.8% with HDQ-P1 [5]; 94.9% with CAL-85-1 [6].

On to `COc1cc2c(Oc3ccc(NC(=O)C4(C(=O)Nc5ccc(F)cc5)CC4)cc3F)ccnc2cc1OCCCN1CCOCC1` [Foretinib] (300 nM), for which the normalised viability with MDA-MB-453 [1] is 75.4%; in the assay on CAL-51 [2], 68.5%; in the assay on CAL-148 [3] it was 91.6%; with DU-4475 [4], 98.8%; in the assay on HDQ-P1 [5], 60.9%; in the assay with CAL-85-1 [6], 84%.

`NC(=O)NO` [Hydroxyurea] (30000 nM): the normalised viability is 93.1% in the assay on MDA-MB-453 [1]; 111% with CAL-51 [2]; 103% in the assay with CAL-148 [3]; 104% in the assay on DU-4475 [4]; 104% in the assay on HDQ-P1 [5]; 89.1% in the assay with CAL-85-1 [6].

Turning to `O=NN(CCCl)C(=O)NC1CCCCC1` [Lomustine] (300 nM), the normalised viability with MDA-MB-453 [13] is 112%; in the assay on CAL-51 [14], 105%; in the assay on CAL-148 [15], 106%; in the assay with DU-4475 [16] it was 110%; in the assay on HDQ-P1 [17], 84.1%; with CAL-85-1 [18], 104%.

Turning to `O=NN(CCCl)C(=O)NC1CCCCC1` [Lomustine] (3000 nM), the normalised viability with MDA-MB-453 [1] turned out to be 112%; with CAL-51 [2] it was 113%; with CAL-148 [3], 103%; in the assay on DU-4475 [4], 89.1%; with HDQ-P1 [5], 99.7%; in the assay on CAL-85-1 [6] it was 93.8%.

With `O=C(O)CC[C@H]1CC[C@@](c2cc(F)ccc2F)(S(=O)(=O)c2ccc(Cl)cc2)CC1` [MK-0752] (30 nM), the normalised viability with MDA-MB-453 [13] was found to be 103%; in the assay on CAL-51 [14], 106%; with CAL-148 [15], 115%; in the assay on DU-4475 [16] it was 117%; in the assay on HDQ-P1 [17] it was 93%; in the assay with CAL-85-1 [18] it was 100%.

Turning to `O=C(O)CC[C@H]1CC[C@@](c2cc(F)ccc2F)(S(=O)(=O)c2ccc(Cl)cc2)CC1` [MK-0752] (300 nM), the normalised viability stood at 114% in the assay on MDA-MB-453 [1]; 119% with CAL-51 [2]; 95.3% in the assay with CAL-148 [3]; 115% in the assay with DU-4475 [4]; 114% in the assay on HDQ-P1 [5]; 94.6% in the assay with CAL-85-1 [6].

With `NC1(c2ccc(-c3nc4ccn5c(=O)[nH]nc5c4cc3-c3ccccc3)cc2)CCC1` [MK-2206] (30 nM), the normalised viability came out at 99.4% in the assay with MDA-MB-453 [13]; 101% in the assay with CAL-51 [14]; 97.4% in the assay on CAL-148 [15]; 103% in the assay on DU-4475 [16]; 69.6% in the assay with HDQ-P1 [17]; 96.2% in the assay with CAL-85-1 [18].

As for `NC1(c2ccc(-c3nc4ccn5c(=O)[nH]nc5c4cc3-c3ccccc3)cc2)CCC1` [MK-2206] (300 nM), the normalised viability turned out to be 73% in the assay with MDA-MB-453 [1]; 98.8% with CAL-51 [2]; 91.3% in the assay on CAL-148 [3]; 100% in the assay on DU-4475 [4]; 77.5% in the assay on HDQ-P1 [5]; 82.9% in the assay with CAL-85-1 [6].

With `NC(=O)c1cccc2cn(-c3ccc([C@@H]4CCCNC4)cc3)nc12` [MK-4827] (300 nM), the normalised viability came out at 106% in the assay on MDA-MB-453 [13]; 100% in the assay with CAL-51 [14]; 101% with CAL-148 [15]; 73.6% in the assay with DU-4475 [16]; 75.7% in the assay on HDQ-P1 [17]; 96.8% in the assay with CAL-85-1 [18].
